Source: the NIST ThermoML archive (doi:10.1016/j.tca.2018.10.026)
Numbers after ± are expanded uncertainties.

Assay: Molar enthalpy of transition or fusion
Details: Crystal; DSC

O.O.O.O.O.O.[Br-].[Br-].[Ca+2] [calcium bromide hexahydrate]
Molar enthalpy of transition or fusion: 10.5 ± 0.22 kcal/mol
